One test deals with LUAD-0057AS1 PDX. Kind of test: PDX efficacy study. The settings on record: 50 mg/kg QD.
The next test concerns ECLC5 xenografts. Kind of test: Subcutaneous xenograft efficacy study. The settings on record: 100 mg/kg QD.
In another test the test system is MMNK1 cholangiocytes. Kind of test: Growth inhibition (alamarBlue, 96 h). It is filed as cell-based, human. The settings on record: for IC50: Homo sapiens, read-out: IC50 for Inhibition of Growth (95% CI), 96 h; for raw viability signal (Source Data Fig. 3b-c): MMNK, replicates.
Test [1] concerns phosphorylation of RET^G810R, RET^G810S and RET^G810C in Ba/F3 cells. Kind of test: Western blotting of RET phosphorylation in Ba/F3 KIF5B–RET cells. The class given is cell-based. The settings on record: 1 h, western blot. On the technique in general: A western blot detects proteins with antibodies after separation by electrophoresis.
Test [2] has as its system Ba/F3 cells expressing KIF5B–RET^V804L. Kind of test: Growth inhibition assay in Ba/F3 cells (CellTiter-Glo, 72 h). The class given is cell-based. The settings on record: replicate sets. On the technique in general: In ATP-based viability assays light output follows the ATP content of the culture.
In test [3] the target is T1, panel of 255 (vepafestinib) or 256 (all other inhibitors) recombinant kinases (Homo sapiens, UniProt P07949).
T1 construct: purchased Carna Biosciences
Kind of test: Kinase selectivity profiling at a single concentration (Carna Biosciences). It is filed as biochemical.

Test [4] deals with T2, panel of 255 (vepafestinib) or 256 (all other inhibitors) recombinant kinases (Homo sapiens, UniProt P11362).
T2 construct: purchased Carna Biosciences
The test is described as above. It is filed as biochemical.

Test [5] addresses T3, panel of 255 (vepafestinib) or 256 (all other inhibitors) recombinant kinases (Homo sapiens, UniProt P22607).
T3 construct: purchased Carna Biosciences
The test is described as above. The class given is biochemical.

Test [6] addresses T4, panel of 255 (vepafestinib) or 256 (all other inhibitors) recombinant kinases (Homo sapiens, UniProt P35968).
T4 construct: purchased Carna Biosciences
The description is as above. The class given is biochemical. The settings on record: 17 nM.

Test [7] deals with T5, panel of 255 (vepafestinib) or 256 (all other inhibitors) recombinant kinases (Homo sapiens, UniProt Q08345).
T5 construct: purchased Carna Biosciences
Described as above. The class given is biochemical.

The target in test [8] is T6, panel of 255 (vepafestinib) or 256 (all other inhibitors) recombinant kinases (Homo sapiens, UniProt P09619).
T6 construct: purchased Carna Biosciences
Described as above. It is filed as biochemical.

In test [9] the target is T7, panel of 255 (vepafestinib) or 256 (all other inhibitors) recombinant kinases (Homo sapiens, UniProt P21802).
T7 construct: purchased Carna Biosciences
The test is described as above. The class given is biochemical.

For test [10], the target named is T8, panel of 255 (vepafestinib) or 256 (all other inhibitors) recombinant kinases (Homo sapiens, UniProt P36888).
T8 construct: purchased Carna Biosciences
The description is as above. The class given is biochemical.

Test [11] relates to Ba/F3 cells expressing KIF5B–RET^V804M. Kind of test: Growth inhibition assay in Ba/F3 cells (CellTiter-Glo, 72 h). It is filed as cell-based. The settings on record: replicate sets.
The target in test [12] is T9, panel of 255 (vepafestinib) or 256 (all other inhibitors) recombinant kinases (Homo sapiens, UniProt Q06418).
T9 construct: purchased Carna Biosciences
Kind of test: Kinase selectivity profiling at a single concentration (Carna Biosciences). It is filed as biochemical. The settings on record: 22 nM.

Test [13] has as its target T10, panel of 255 (vepafestinib) or 256 (all other inhibitors) recombinant kinases (Homo sapiens, UniProt Q15375).
T10 construct: purchased Carna Biosciences
The test is described as above. It is filed as biochemical. The settings on record: 22 nM.

Test [14] has as its target T11, panel of 255 (vepafestinib) or 256 (all other inhibitors) recombinant kinases (Homo sapiens, UniProt O14757).
T11 construct: purchased Carna Biosciences
Described as above. The class given is biochemical. The settings on record: 22 nM.

The mark [15] stands for this setting: end of study, individual tumors.
[16] abbreviates: Mus musculus, BaF3, Ba/3-KIF5B-RET-V804M.

Several values for one entry are separate records, joined by “and”; a condition that tells them apart may be missing. Identical values can stand only once. Like-named read-outs stand apart in the source and are kept apart here.

T1 sequence (P07949 29-1114): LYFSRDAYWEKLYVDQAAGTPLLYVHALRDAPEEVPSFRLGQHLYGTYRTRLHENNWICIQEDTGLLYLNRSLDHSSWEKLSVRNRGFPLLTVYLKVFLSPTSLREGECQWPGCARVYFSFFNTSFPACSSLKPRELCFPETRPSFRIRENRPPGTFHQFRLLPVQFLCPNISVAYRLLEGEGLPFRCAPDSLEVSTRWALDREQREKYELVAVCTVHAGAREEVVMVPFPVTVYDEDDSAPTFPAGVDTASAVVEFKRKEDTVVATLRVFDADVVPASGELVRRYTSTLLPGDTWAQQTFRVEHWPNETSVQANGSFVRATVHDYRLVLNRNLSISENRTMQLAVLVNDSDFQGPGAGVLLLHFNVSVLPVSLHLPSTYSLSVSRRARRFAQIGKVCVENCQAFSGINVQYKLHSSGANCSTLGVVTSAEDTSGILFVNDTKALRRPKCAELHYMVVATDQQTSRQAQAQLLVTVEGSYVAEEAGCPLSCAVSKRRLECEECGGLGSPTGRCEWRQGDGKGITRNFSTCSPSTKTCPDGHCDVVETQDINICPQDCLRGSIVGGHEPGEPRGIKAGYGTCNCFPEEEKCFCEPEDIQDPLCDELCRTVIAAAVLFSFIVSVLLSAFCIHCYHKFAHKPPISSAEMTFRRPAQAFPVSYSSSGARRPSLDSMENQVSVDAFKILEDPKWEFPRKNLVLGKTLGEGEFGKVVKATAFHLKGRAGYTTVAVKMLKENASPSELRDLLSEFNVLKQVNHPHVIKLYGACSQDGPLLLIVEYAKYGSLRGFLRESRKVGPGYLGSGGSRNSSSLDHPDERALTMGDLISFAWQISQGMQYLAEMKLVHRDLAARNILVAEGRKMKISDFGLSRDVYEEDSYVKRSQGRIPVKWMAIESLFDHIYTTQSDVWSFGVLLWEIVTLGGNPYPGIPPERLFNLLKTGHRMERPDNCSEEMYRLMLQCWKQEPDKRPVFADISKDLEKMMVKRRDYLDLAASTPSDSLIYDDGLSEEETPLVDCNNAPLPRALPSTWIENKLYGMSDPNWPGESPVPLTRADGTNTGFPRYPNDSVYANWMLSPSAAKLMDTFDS
T2 sequence (P11362 22-822): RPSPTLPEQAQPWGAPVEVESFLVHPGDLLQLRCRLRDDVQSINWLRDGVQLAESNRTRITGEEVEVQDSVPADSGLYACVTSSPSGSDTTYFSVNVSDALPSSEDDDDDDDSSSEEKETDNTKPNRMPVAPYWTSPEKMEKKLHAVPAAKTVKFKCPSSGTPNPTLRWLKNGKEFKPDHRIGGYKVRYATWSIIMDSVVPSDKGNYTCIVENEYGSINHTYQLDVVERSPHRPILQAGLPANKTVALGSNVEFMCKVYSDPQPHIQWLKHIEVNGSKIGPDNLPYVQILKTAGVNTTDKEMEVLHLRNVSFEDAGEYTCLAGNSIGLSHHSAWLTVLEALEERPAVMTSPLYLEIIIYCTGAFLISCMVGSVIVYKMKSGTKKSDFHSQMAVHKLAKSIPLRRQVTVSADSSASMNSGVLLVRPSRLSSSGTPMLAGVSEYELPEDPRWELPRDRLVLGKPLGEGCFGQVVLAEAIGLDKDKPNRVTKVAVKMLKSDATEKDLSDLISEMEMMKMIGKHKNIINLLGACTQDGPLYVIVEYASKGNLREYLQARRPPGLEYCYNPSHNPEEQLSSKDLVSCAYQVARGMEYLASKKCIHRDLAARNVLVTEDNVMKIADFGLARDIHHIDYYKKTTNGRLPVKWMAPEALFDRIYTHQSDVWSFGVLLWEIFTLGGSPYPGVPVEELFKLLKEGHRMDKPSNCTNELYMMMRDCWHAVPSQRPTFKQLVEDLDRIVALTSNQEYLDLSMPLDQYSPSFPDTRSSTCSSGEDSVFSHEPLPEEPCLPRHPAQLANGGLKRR
T5 sequence (Q08345 19-913): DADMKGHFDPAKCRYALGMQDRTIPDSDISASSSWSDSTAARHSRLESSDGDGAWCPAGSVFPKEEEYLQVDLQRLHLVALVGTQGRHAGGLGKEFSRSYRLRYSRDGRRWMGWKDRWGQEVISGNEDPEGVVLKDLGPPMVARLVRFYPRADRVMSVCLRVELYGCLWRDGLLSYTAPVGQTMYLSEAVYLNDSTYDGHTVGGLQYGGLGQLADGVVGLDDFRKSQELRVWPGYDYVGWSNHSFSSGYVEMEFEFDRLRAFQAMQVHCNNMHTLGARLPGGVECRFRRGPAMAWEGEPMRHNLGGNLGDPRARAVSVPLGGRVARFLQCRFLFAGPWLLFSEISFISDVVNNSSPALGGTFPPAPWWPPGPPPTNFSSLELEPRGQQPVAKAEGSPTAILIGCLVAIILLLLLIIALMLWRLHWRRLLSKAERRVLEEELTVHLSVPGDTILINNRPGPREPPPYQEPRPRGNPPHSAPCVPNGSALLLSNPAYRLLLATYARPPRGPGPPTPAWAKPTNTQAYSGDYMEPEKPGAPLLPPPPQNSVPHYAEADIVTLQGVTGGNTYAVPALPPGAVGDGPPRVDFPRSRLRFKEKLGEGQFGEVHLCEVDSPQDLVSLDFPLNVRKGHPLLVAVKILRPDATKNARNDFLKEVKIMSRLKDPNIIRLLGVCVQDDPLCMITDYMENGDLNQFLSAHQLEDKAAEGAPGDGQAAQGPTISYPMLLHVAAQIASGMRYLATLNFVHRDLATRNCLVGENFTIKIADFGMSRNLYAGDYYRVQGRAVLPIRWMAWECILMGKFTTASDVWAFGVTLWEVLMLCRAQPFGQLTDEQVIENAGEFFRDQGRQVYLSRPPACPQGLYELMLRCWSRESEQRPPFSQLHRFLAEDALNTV
T6 sequence (P09619 33-1106): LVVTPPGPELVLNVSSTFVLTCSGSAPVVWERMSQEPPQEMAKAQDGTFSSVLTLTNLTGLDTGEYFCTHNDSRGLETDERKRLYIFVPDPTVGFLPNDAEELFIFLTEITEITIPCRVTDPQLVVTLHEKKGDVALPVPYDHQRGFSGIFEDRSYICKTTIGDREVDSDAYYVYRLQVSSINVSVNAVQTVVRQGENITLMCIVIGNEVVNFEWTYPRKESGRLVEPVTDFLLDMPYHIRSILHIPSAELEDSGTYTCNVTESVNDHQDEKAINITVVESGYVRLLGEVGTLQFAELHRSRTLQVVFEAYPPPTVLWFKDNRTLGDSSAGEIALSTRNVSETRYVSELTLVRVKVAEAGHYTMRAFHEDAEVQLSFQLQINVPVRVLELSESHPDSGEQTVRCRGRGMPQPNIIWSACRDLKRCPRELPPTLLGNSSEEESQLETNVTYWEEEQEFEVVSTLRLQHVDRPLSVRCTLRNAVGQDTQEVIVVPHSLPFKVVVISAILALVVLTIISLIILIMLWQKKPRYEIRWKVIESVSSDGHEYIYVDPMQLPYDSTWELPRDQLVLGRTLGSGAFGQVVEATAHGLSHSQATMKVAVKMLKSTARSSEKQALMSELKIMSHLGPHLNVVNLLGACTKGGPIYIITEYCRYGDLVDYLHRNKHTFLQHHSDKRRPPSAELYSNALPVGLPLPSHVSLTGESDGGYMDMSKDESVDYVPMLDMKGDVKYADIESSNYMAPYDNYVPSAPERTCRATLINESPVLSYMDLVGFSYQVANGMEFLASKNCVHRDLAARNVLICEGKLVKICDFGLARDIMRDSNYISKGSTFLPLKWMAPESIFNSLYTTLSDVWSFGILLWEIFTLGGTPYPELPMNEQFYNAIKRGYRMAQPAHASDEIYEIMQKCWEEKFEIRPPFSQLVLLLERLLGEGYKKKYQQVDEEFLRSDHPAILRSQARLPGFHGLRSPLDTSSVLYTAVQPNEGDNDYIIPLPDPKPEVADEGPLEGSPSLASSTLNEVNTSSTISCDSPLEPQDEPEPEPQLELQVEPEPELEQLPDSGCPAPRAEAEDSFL
T8 sequence (P36888 27-993): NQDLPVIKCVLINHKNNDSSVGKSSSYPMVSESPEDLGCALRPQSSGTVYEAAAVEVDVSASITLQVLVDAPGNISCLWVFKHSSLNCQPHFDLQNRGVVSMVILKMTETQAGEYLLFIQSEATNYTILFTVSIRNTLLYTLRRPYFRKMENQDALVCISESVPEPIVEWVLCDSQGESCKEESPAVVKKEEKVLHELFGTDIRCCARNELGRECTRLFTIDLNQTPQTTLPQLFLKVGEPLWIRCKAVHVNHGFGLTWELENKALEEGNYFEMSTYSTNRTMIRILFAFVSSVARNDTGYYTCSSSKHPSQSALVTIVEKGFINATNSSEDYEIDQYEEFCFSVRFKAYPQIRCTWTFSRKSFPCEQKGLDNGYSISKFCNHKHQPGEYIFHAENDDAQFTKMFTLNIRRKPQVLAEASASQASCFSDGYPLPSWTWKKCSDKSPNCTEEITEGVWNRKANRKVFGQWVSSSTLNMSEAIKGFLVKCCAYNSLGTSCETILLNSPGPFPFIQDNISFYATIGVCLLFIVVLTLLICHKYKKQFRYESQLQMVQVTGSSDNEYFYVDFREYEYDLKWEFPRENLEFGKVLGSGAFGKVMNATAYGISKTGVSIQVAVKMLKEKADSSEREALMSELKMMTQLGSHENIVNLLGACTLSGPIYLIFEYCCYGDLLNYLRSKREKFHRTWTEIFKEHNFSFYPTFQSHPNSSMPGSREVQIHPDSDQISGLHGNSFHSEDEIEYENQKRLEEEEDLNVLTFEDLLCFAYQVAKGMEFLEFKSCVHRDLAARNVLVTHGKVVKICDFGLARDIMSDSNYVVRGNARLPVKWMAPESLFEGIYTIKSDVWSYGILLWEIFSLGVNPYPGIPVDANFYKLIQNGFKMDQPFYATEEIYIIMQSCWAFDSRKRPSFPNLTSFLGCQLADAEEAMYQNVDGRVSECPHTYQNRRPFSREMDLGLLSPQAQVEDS

For the compound `COc1cc2c(Nc3ccc(Br)cc3F)ncnc2cc1OCC1CCN(C)CC1` [Vandetanib], the “Area Under Curve of tumor growth, Mean” value in the test with LUAD-0057AS1 PDX is -2007; in the test on ECLC5 xenografts it was -1273. For the same compound, the Tumor volume with LUAD-0057AS1 PDX (day 0, individual animals) was 143.69 mm3 (3×) and 139.24 mm3 (2×) and 136.86 mm3 and 132.84 mm3 and 124.41 mm3; with LUAD-0057AS1 PDX (day 3, individual animals) it was 79.85 mm3 and 78.99 mm3 (2×) and 80.35 mm3 and 89.72 mm3 and 82.12 mm3 and 83.53 mm3 (2×); with LUAD-0057AS1 PDX (day 7, individual animals), 65.45 mm3 (5×) and 66.76 mm3 (2×) and 69.46 mm3; in the test on LUAD-0057AS1 PDX (day 10, individual animals), 52.07 mm3 (2×) and 58.99 mm3 and 57.83 mm3 (3×) and 56.67 mm3 and 49.83 mm3; with LUAD-0057AS1 PDX (day 14, individual animals), 52.07 mm3 (2×) and 55.52 mm3 and 57.83 mm3 (2×) and 56.67 mm3 and 49.83 mm3; in the test with LUAD-0057AS1 PDX (day 19, individual animals) it was 0 mm3. Also, the Tumor volume is 0 mm3 with LUAD-0057AS1 PDX (day 23, individual animals); 83.83 mm3 (2×) and 88.56 mm3 and 87.03 mm3 in the test with ECLC5 xenografts (day 0, individual animals); 55.4 mm3 (2×) and 45.5 mm3 and 53.01 mm3 and 50.68 mm3 in the test with ECLC5 xenografts (day 4, individual animals); 42.25 mm3 and 37.7 mm3 and 44.53 mm3 and 41.37 mm3 and 39.37 mm3 with ECLC5 xenografts (day 7, individual animals); 38.54 mm3 and 37.7 mm3 and 44.53 mm3 and 33.69 mm3 and 31.89 mm3 in the test with ECLC5 xenografts (day 11, individual animals); 36.02 mm3 and 36.86 mm3 and 35.19 mm3 and 28.86 mm3 and 23.59 mm3 in the test with ECLC5 xenografts (day 14, individual animals). The Tumor volume in the test with ECLC5 xenografts (day 19, individual animals) is 34.35 mm3 and 31 mm3 and 35.19 mm3 and 28.86 mm3 and 18.85 mm3; in the test on ECLC5 xenografts (day 22, individual animals), 0 mm3 (4×) and 29.39 mm3; with ECLC5 xenografts (day 25, individual animals), 0 mm3. For the same compound, the “Change in Tumor Volume” value in the test with LUAD-0057AS1 PDX (setting [15]) and with ECLC5 xenografts (setting [15]) was -100% throughout. Moreover, the half-maximal inhibitory concentration (IC50) in the test on MMNK1 cholangiocytes (MMNK1, alamarBlue) is 1900 nM. Moreover, the “raw viability signal (Source Data Fig. 3b-c)” value (“raw viability signal” for short) is 15966.6 and 15969.8 with MMNK1 cholangiocytes (0.01 nM); 15836.6 in the test with MMNK1 cholangiocytes (0.1 nM); 15572.3 in the test with MMNK1 cholangiocytes (1 nM); 14924.4 and 14679.1 in the test on MMNK1 cholangiocytes (10 nM); 14912.5 and 14740.1 in the test with MMNK1 cholangiocytes (100 nM); 12405.8 with MMNK1 cholangiocytes (1000 nM). In the test with MMNK1 cholangiocytes (10000 nM), the “raw viability signal” value is 1136.86 and 1108.37.

For the compound `CO[C@]1(C(=O)N[C@@H](C)c2ccc(-n3cc(F)cn3)nc2)CC[C@H](c2nc(C)cc(Nc3cc(C)[nH]n3)n2)CC1` [Pralsetinib], in test [1], the “block of phosphorylation of RET^G810R, RET^G810S or RET^G810C” value is “did not block”. In addition, the GI50 in test [2] (Ba/3-KIF5B-RET-V804L) was 10.6 nM and 6.67 nM and 4.32 nM; in test [11] (Ba/3-KIF5B-RET-V804M), 7.93 nM and 8.94 nM; in [11] (setting [16]), 8.92 nM. In addition, in the test with MMNK1 cholangiocytes, the IC50 turned out to be 1220 nM. Further, the “raw viability signal” value in the test on MMNK1 cholangiocytes (0.01 nM) is 14061.5 and 14595.7; in the test with MMNK1 cholangiocytes (0.1 nM), 14508.1 and 15314.3; with MMNK1 cholangiocytes (1 nM), 14527.4 and 15275.2; with MMNK1 cholangiocytes (10 nM), 14437.6 and 14593.5; in the test on MMNK1 cholangiocytes (100 nM) it was 12743.6 and 12893.3; with MMNK1 cholangiocytes (1000 nM) it was 8417.95 and 8619.63. Moreover, the “raw viability signal” value in the test with MMNK1 cholangiocytes (10000 nM) was 2073.73 and 2410.62. Further, the “% Inhibiton RET” value in test [3] (17 nM) came out at 96.7%. In addition, the “% Inhibiton FGFR1” value in [4] (17 nM) is 57%. Also, the “% Inhibiton FGFR3” value in [5] (17 nM) worked out at 34.3%. The “% Inhibiton KDR” value in test [6] worked out at 27.4%. Moreover, the “% Inhibiton DDR1” value in test [7] (17 nM) turned out to be 72.1%. Besides, the “% Inhibiton PDGFRβ” value in [8] (17 nM) came out at 69.8%. Also, the “% Inhibiton FGFR2” value in test [9] (17 nM) came out at 29.4%. Moreover, the “% Inhibiton FLT3” value in test [10] (17 nM) was 73.3%.

With `COc1ccc(CN2C3CC2CN(c2ccc(-c4cc(OCC(C)(C)O)cn5ncc(C#N)c45)cn2)C3)cn1` [Selpercatinib], the “block of phosphorylation of RET^G810R, RET^G810S or RET^G810C” value in [1] is given as “did not block”. In addition, the GI50 in test [2] (Ba/3-KIF5B-RET-V804L) was 8.67 nM and 7.06 nM; in [2] (Mus musculus, BaF3, Ba/3-KIF5B-RET-V804L), 5.67 nM; in test [11] (Ba/3-KIF5B-RET-V804M), 36.4 nM and 32.9 nM; in test [11] (setting [16]) it was 30.6 nM. In the test with MMNK1 cholangiocytes, the IC50 turned out to be 7930 nM. The “raw viability signal” value with MMNK1 cholangiocytes (0.01 nM) is 14041 and 14658.8; with MMNK1 cholangiocytes (0.1 nM) it was 13930.7 and 15331; in the test on MMNK1 cholangiocytes (1 nM), 13461 and 14668.6; in the test on MMNK1 cholangiocytes (10 nM), 13703.4 and 14128; with MMNK1 cholangiocytes (100 nM), 13905.3 and 14051.8; with MMNK1 cholangiocytes (1000 nM), 12731.7 and 12599.2. Further, the “raw viability signal” value in the test with MMNK1 cholangiocytes (10000 nM) is 6976.41 and 6993.09. Moreover, the “% Inhibiton TYRO3” value in test [12] came out at 38.2%. For the same compound, in test [3] (22 nM), the “% Inhibiton RET” value turned out to be 98.6%. For the same compound, the “% Inhibiton FGFR1” value in [4] (22 nM) was found to be 21.4%. In addition, the “% Inhibiton FGFR3” value in test [5] (22 nM) amounted to 35.9%. In addition, the “% Inhibiton EPHA7” value in test [13] is 26.3%. Moreover, the “% Inhibiton DDR1” value in [7] (22 nM) was found to be 18%. In test [14], the “% Inhibiton CHK1” value worked out at 15.2%. In addition, the “% Inhibiton PDGFRβ” value in test [8] (22 nM) is 21.7%. Further, the “% Inhibiton FGFR2” value in test [9] (22 nM) amounted to 44.8%. The “% Inhibiton FLT3” value in [10] (22 nM) is reported as 52.5%.

By IC50 is commonly meant the concentration that gives 50% inhibition. As a reminder, the GI50 is the concentration that inhibits growth by half. A low value points to more potent growth inhibition.

These data come from paper PMC10518257 (Nature Cancer, 2023).
